Results as given in patent US7253146B2, “Template-fixed peptidomimetics with antimicrobial activity” (Polyphor Ltd, priority 2001, dated 2007).
Converted amounts (≈) assume the structure as drawn. Where two headings read alike, the source gives them in different places. *1 amine or outer side, *2 acyl side, *3 side chain or, on linkers, in order; H or OH if unused. Where a SMILES comes first, the peptide text is derived from it. [ ]: non-standard residue; d: D form. The star is where a group is joined. X3 = O=C(N[C@H]1C[C@@H](C(=O)[*:2])N([*:1])C1)C1CCCCC1; X2 = CCCCCCCC(=O)N[C@H]1C[C@@H](C(=O)[*:2])N([*:1])C1; X1 = CCCCCCC(=O)N[C@H]1C[C@@H](C(=O)[*:2])N([*:1])C1; Phenylacetyl(4-Ph) = O=C(Cc1ccc(-c2ccccc2)cc1)*; X4 = O=C([C@@H]1C[C@H](N[*:3])CN1[*:1])[*:2]; Diphenylacetyl = O=C(C(c1ccccc1)c1ccccc1)*; Bip = N[C@@H](Cc1ccc(-c2ccccc2)cc1)C(=O)O; Cha = N[C@@H](CC1CCCCC1)C(=O)O; Orn = NCCC[C@H](N)C(=O)O; Bn = c1ccc(C*)cc1

Legend:
[1] = tested on: Escherichia coli (ATCC 25922)
Procedure: (§1) Lyophilized peptides were weighed on a Microbalance (Mettler MT5) and dissolved in sterile water containing 0.01% acetic acid Tachyplesin was purchased from Bachem Ltd. (Bubendorf Switzerland).
(§2) The antimicrobial activities of the peptides were determined by the standard NCCLS broth microdilution method (see ref 1, below) examined in sterile 96-wells plates (Nunclon polystyrene microtiter plates) in a total volume of 100 μl. […] 10^6 colony forming units (CFU)/ml for bacteria or 5×10^3 CFU/ml for Candida. Aliquots (50 μl) of the innocula were added to 50 μl of MH broth containing the peptide in serial twofold dilutions. The microorganisms used were Escherichia coli (ATCC 25922), Pseudomnonas aeruginosa (P. aeruginosa) (ATCC 27853), Stahylococcus aureus (ATCC 29213 and ATCC 25923) and Candida albicans. A selected number of peptides were screened for activity against a larger panel of gram-negative strains. These strains were; Escherichia coli ATCC 43827 and clinical isolates of Pseudomonas (P. aeruginosa V07 14482, P. aeruginosa 15288, P. aeruginosa V02 15328 and P. aeruginosa V09 16085) and Acinetobacter (Acinetobacter V04 19905/1, Acinetobacter V12 21143/1 and Acinetobacter V12 21193/1).

[2] = tested on: Candida albicans
Procedure: as §1, §2

[3] = tested on: Staphylococcus aureus ATCC 29213
Procedure: as §1, §2

[4] = tested on: Staphylococcus aureus ATCC 25923
Procedure: as §1, §2

[5] = tested on: human red blood cells (hRBC); assay: Hemolysis of human red blood cells at 100 μg/ml peptide; conditions: 100 μg/ml of peptide, 20% v/v hRBC, 1 hour at 37° C.
Procedure: Hemolysis of red blood cells is often employed for assessment of toxicity of related compounds such as protegrin or tachyplesin. Values are given as %-lysis of red blood cells observed at a concentration of 100 μg/ml.
The peptides were tested for their hemolytic activity against human red blood cells (hRBC). Fresh hRBC were washed three times with phosphate buffered saline (PBS) by centrifugation for 10 min at 2000×g. Peptides at a concentration of 100 μg/ml were incubated with 20% v/v hRBC for 1 hour at 37° C. The final erythrocyte concentration was appr. 0.9×10^9/ml. A value of 0% resp. 100% cell lysis was determined by incubation of the hRBC in the presence of PBS alone and resp. 0.1% Triton X-100 in H2O. The samples were centrifuged and the supernatant was 20 fold diluted in PBS buffer and the optical density (OD) of the sample at […] was measured. […] Percent hemolysis was calculated as follows: (OD540peptide/OD540H2O)×100%.

[6] = tested on: Candida albicans; remark: listed apart in the source
Procedure: as §2
(§3) Salt sensitivity of the peptides was tested by the microtiter serial dilution assay as described above. Only MH broth was replaced by MH broth containing 1% NaCl.

[7] = tested on: Staphylococcus aureus ATCC 29213; remark: listed apart in the source
Procedure: as §2, §3

[8] = tested on: Pseudomonas putida ATCC 27853
Procedure: as §2, §3

[9] = tested on: Staphylococcus aureus ATCC 25923; remark: listed apart in the source
Procedure: as §2, §3

[10] = tested on: Escherichia coli ATCC 25922
Procedure: as §2, §3

[11] = tested on: human red blood cells; conditions: cited from earlier work
[12] = tested on: gram-positive and gram-negative bacteria; conditions: background statement; cited from earlier work

MIC Escherichia coli ATCC 25922 ([1]; ATCC 25922)	MIC Candida albicans [2]	MIC Staphylococcus aureus ATCC 29213 ([3]; ATCC 29213)	MIC Staphylococcus aureus ATCC 25923 ([4]; ATCC 25923)	Compound	further results
6.2 µg/mL (≈ 3.25 µM)	6.2 µg/mL (≈ 3.25 µM)	12.5 µg/mL (≈ 6.56 µM)	12.5 µg/mL (≈ 6.56 µM)	CC(C)C[C@@H]1NC(=O)[C@H](CCCNC(=N)N)NC(=O)[C@H](CC(C)C)NC(=O)[C@@H]2CCCN2C(=O)[C@H]2CCCN2C(=O)[C@H](C(C)C)NC(=O)[C@H](CCCNC(=N)N)NC(=O)[C@H]([C@@H](C)OCc2ccccc2)NC(=O)[C@H](CCCCN)NC(=O)[C@H](Cc2c[nH]c3ccccc23)NC(=O)[C@H](CCCNC(=N)N)NC(=O)[C@H](CCCNC(=N)N)NC(=O)[C@H](CCCCN)NC(=O)[C@H](CCCCN)NC1=O [Example 206] (cyclo(LRLKKRRWKT(Bn)RV[dP]P))	
18.8 µg/mL (≈ 10.1 µM)	12.5 µg/mL (≈ 6.7 µM)	12.5 µg/mL (≈ 6.7 µM)	25 µg/mL (≈ 13.4 µM)	CC(C)C[C@@H]1NC(=O)[C@H](CCCNC(=N)N)NC(=O)[C@H](CC(C)C)NC(=O)[C@@H]2CCCN2C(=O)[C@H]2CCCN2C(=O)[C@H](C(C)C)NC(=O)[C@H](CCCNC(=N)N)NC(=O)[C@H](Cc2ccc(O)cc2)NC(=O)[C@H](CCCN)NC(=O)[C@H](Cc2c[nH]c3ccccc23)NC(=O)[C@H](CCCNC(=N)N)NC(=O)[C@H](CCCNC(=N)N)NC(=O)[C@H](CCCCN)NC(=O)[C@H](CCCCN)NC1=O [Example 217] (cyclo(LRLKKRRW[Orn]YRV[dP]P))	
				CC(C)C[C@@H]1NC(=O)[C@H](Cc2c[nH]c3ccccc23)NC(=O)[C@H](CC(C)C)NC(=O)[C@@H]2CCCN2C(=O)[C@H]2CCCN2C(=O)[C@H](C(C)C)NC(=O)[C@H](CCCNC(=N)N)NC(=O)[C@H](Cc2ccc(O)cc2)NC(=O)[C@H](CCCNC(=N)N)NC(=O)[C@H](Cc2ccc(-c3ccccc3)cc2)NC(=O)[C@H](CCCNC(=N)N)NC(=O)[C@H](CCCNC(=N)N)NC(=O)[C@H](CCCCN)NC(=O)[C@H](CCCCN)NC1=O [Example 232] (cyclo(LWLKKRR[Bip]RYRV[dP]P))	Hemolyses hRBC (percentage hemolyses) [5]: 1.5%; MIC Escherichia coli ATCC 25922 ([1]; Table 8, Mueller-Hinton broth): 6.2 µg/mL (≈ 3.14 µM); MIC Candida albicans ([2]; Table 8, Mueller-Hinton broth): 9.4 µg/mL (≈ 4.76 µM); MIC Staphylococcus aureus ATCC 29213 ([3]; Table 8, Mueller-Hinton broth): 9.4 µg/mL (≈ 4.76 µM); MIC Staphylococcus aureus ATCC 25923 ([4]; Table 8, Mueller-Hinton broth): 6.2 µg/mL (≈ 3.14 µM)
12.5 µg/mL (≈ 6.46 µM)	12.5 µg/mL (≈ 6.46 µM)	6.2 µg/mL (≈ 3.21 µM)	12.5 µg/mL (≈ 6.46 µM)	CC(C)C[C@@H]1NC(=O)[C@H](CCCNC(=N)N)NC(=O)[C@H](CC(C)C)NC(=O)[C@H](CC2CCCCC2)NC(=O)[C@H]2CCCN2C(=O)[C@H](C(C)C)NC(=O)[C@H](CCCNC(=N)N)NC(=O)[C@H](Cc2ccc(O)cc2)NC(=O)[C@H](CCCCN)NC(=O)[C@H](Cc2c[nH]c3ccccc23)NC(=O)[C@H](CCCNC(=N)N)NC(=O)[C@H](CCCNC(=N)N)NC(=O)[C@H](CCCCN)NC(=O)[C@H](CCCCN)NC1=O [Example 254] (cyclo([Cha]LRLKKRRWKYRV[dP]))	
3.1 µg/mL (≈ 1.55 µM)	6.2 µg/mL (≈ 3.09 µM)	6.2 µg/mL (≈ 3.09 µM)	6.2 µg/mL (≈ 3.09 µM)	CCCCCCC(=O)N[C@H]1C[C@H]2C(=O)N[C@@H](CC(C)C)C(=O)N[C@@H](CCCNC(=N)N)C(=O)N[C@@H](CC(C)C)C(=O)N[C@@H](CCCCN)C(=O)N[C@@H](CCCCN)C(=O)N[C@@H](CCCNC(=N)N)C(=O)N[C@@H](CCCNC(=N)N)C(=O)N[C@@H](Cc3c[nH]c4ccccc34)C(=O)N[C@@H](CCCCN)C(=O)N[C@@H](Cc3ccc(O)cc3)C(=O)N[C@@H](CCCNC(=N)N)C(=O)N[C@@H](C(C)C)C(=O)N3CCC[C@@H]3C(=O)N2C1 [Example 256] (cyclo(KKRRWKYRV[dP][X1]LRL))	Minimal inhibitory concentration (MIC) Candida albicans [6]: 25 µg/mL (≈ 12.5 µM); Minimal inhibitory concentration (MIC) Staphylococcus aureus ATCC 29213 [7]: 25 µg/mL (≈ 12.5 µM); Minimal inhibitory concentration (MIC) Pseudomonas putida ATCC 27853 [8]: 6.2 µg/mL (≈ 3.09 µM); Minimal inhibitory concentration (MIC) Staphylococcus aureus ATCC 25923 [9]: 25 µg/mL (≈ 12.5 µM); Minimal inhibitory concentration (MIC) Escherichia coli ATCC 25922 [10]: 6.2 µg/mL (≈ 3.09 µM)
6.2 µg/mL (≈ 3.07 µM)	25 µg/mL (≈ 12.4 µM)	6.2 µg/mL (≈ 3.07 µM)	6.2 µg/mL (≈ 3.07 µM)	CCCCCCCC(=O)N[C@H]1C[C@H]2C(=O)N[C@@H](CC(C)C)C(=O)N[C@@H](CCCNC(=N)N)C(=O)N[C@@H](CC(C)C)C(=O)N[C@@H](CCCCN)C(=O)N[C@@H](CCCCN)C(=O)N[C@@H](CCCNC(=N)N)C(=O)N[C@@H](CCCNC(=N)N)C(=O)N[C@@H](Cc3c[nH]c4ccccc34)C(=O)N[C@@H](CCCCN)C(=O)N[C@@H](Cc3ccc(O)cc3)C(=O)N[C@@H](CCCNC(=N)N)C(=O)N[C@@H](C(C)C)C(=O)N3CCC[C@@H]3C(=O)N2C1 [Example 257] (cyclo(KKRRWKYRV[dP][X2]LRL))	
				CC(C)C[C@@H]1NC(=O)[C@H](CCCNC(=N)N)NC(=O)[C@H](CC(C)C)NC(=O)[C@@H]2C[C@H](NC(=O)Cc3ccc(-c4ccccc4)cc3)CN2C(=O)[C@H]2CCCN2C(=O)[C@H](C(C)C)NC(=O)[C@H](CCCNC(=N)N)NC(=O)[C@H](Cc2ccc(O)cc2)NC(=O)[C@H](CCCCN)NC(=O)[C@H](Cc2c[nH]c3ccccc23)NC(=O)[C@H](CCCNC(=N)N)NC(=O)[C@H](CCCNC(=N)N)NC(=O)[C@H](CCCCN)NC(=O)[C@H](CCCCN)NC1=O [Example 258] (cyclo(KKRRWKYRV[dP][X4](Phenylacetyl(4-Ph))LRL))	Hemolyses hRBC (percentage hemolyses) [5]: 23.6%; MIC Escherichia coli ATCC 25922 ([1]; Table 8, Mueller-Hinton broth): 6.2 µg/mL (≈ 2.97 µM); MIC Candida albicans ([2]; Table 8, Mueller-Hinton broth): 12.5 µg/mL (≈ 5.99 µM); MIC Staphylococcus aureus ATCC 29213 ([3]; Table 8, Mueller-Hinton broth): 6.2 µg/mL (≈ 2.97 µM); MIC Staphylococcus aureus ATCC 25923 ([4]; Table 8, Mueller-Hinton broth): 6.2 µg/mL (≈ 2.97 µM)
				CC(C)C[C@@H]1NC(=O)[C@H](CCCNC(=N)N)NC(=O)[C@H](CC(C)C)NC(=O)[C@@H]2C[C@H](NC(=O)C(c3ccccc3)c3ccccc3)CN2C(=O)[C@H]2CCCN2C(=O)[C@H](C(C)C)NC(=O)[C@H](CCCNC(=N)N)NC(=O)[C@H](Cc2ccc(O)cc2)NC(=O)[C@H](CCCCN)NC(=O)[C@H](Cc2c[nH]c3ccccc23)NC(=O)[C@H](CCCNC(=N)N)NC(=O)[C@H](CCCNC(=N)N)NC(=O)[C@H](CCCCN)NC(=O)[C@H](CCCCN)NC1=O [Example 259] (cyclo(KKRRWKYRV[dP][X4](Diphenylacetyl)LRL))	Hemolyses hRBC (percentage hemolyses) [5]: 18.0%; MIC Escherichia coli ATCC 25922 ([1]; Table 8, Mueller-Hinton broth): 6.2 µg/mL (≈ 2.97 µM); MIC Candida albicans ([2]; Table 8, Mueller-Hinton broth): 12.5 µg/mL (≈ 5.99 µM); MIC Staphylococcus aureus ATCC 29213 ([3]; Table 8, Mueller-Hinton broth): 6.2 µg/mL (≈ 2.97 µM); MIC Staphylococcus aureus ATCC 25923 ([4]; Table 8, Mueller-Hinton broth): 6.2 µg/mL (≈ 2.97 µM)
12.5 µg/mL (≈ 6.24 µM)	12.5 µg/mL (≈ 6.24 µM)	6.2 µg/mL (≈ 3.09 µM)	12.5 µg/mL (≈ 6.24 µM)	CC(C)C[C@@H]1NC(=O)[C@H](CCCNC(=N)N)NC(=O)[C@H](CC(C)C)NC(=O)[C@@H]2C[C@H](NC(=O)C3CCCCC3)CN2C(=O)[C@H]2CCCN2C(=O)[C@H](C(C)C)NC(=O)[C@H](CCCNC(=N)N)NC(=O)[C@H](Cc2ccc(O)cc2)NC(=O)[C@H](CCCCN)NC(=O)[C@H](Cc2c[nH]c3ccccc23)NC(=O)[C@H](CCCNC(=N)N)NC(=O)[C@H](CCCNC(=N)N)NC(=O)[C@H](CCCCN)NC(=O)[C@H](CCCCN)NC1=O [Example 267] (cyclo(KKRRWKYRV[dP][X3]LRL))	
				CC(C)C[C@H](NC(=O)[C@H](CCCNC(=N)N)NC(=O)CNC(=O)CNC(=O)[C@@H](N)CCCNC(=N)N)C(=O)N[C@H]1CSSC[C@@H](C(=O)N[C@H](C(=O)NCC(=O)N[C@@H](CCCNC(=N)N)C(N)=O)C(C)C)NC(=O)[C@H](C(C)C)NC(=O)[C@@H]2CSSC[C@H](NC(=O)[C@H](Cc3ccc(O)cc3)NC1=O)C(=O)N[C@@H](CCCNC(=N)N)C(=O)N[C@@H](CCCNC(=N)N)C(=O)N[C@@H](CCCNC(=N)N)C(=O)N[C@@H](Cc1ccccc1)C(=O)N2 [protegrin]	hemolytic activity [11]: high hemolytic activity; antimicrobial activity [12]: potent and similar activity
				Gramicidin S	hemolytic activity ([11]; background statement): high hemolytic activity; antimicrobial activity [12]: potent antimicrobial activity
